Reference: PubChem BioAssay (NCI)
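Each compound was tested at five concentrations against cells in 96-well plates for 48 hours. At the TGI there is no net growth.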

What was measured:
Assay in all cases: NCI tumour cell line growth inhibition, 48 h
ACHN renal = tested on: ACHN renal
SF-268 CNS = tested on: SF-268 CNS
U251 CNS = tested on: U251 CNS
NCI-H522 lung = tested on: NCI-H522 lung
RXF 393 renal = tested on: RXF 393 renal
A498 renal = tested on: A498 renal
MOLT-4 leukemia = tested on: MOLT-4 leukemia
UACC-257 melanoma = tested on: UACC-257 melanoma
SK-MEL-2 melanoma = tested on: SK-MEL-2 melanoma
KM12 colon = tested on: KM12 colon
NCI-H460 lung = tested on: NCI-H460 lung
HL-60(TB) leukemia = tested on: HL-60(TB) leukemia
EKVX NSCLC = tested on: EKVX NSCLC
HCT-15 colon = tested on: HCT-15 colon

COc1c2ccccc2c(OC)c2nc(C)ccc12
TGI (ACHN renal): > 100 µM
TGI (SF-268 CNS): > 100 µM
TGI (U251 CNS): > 46.4 µM
TGI (NCI-H522 lung): > 100 µM
TGI (RXF 393 renal): > 100 µM
TGI (A498 renal): > 100 µM
TGI (MOLT-4 leukemia): 99.7 µM
TGI (UACC-257 melanoma): > 100 µM
TGI (SK-MEL-2 melanoma): > 100 µM
TGI (KM12 colon): > 100 µM
TGI (NCI-H460 lung): > 100 µM
TGI (HL-60(TB) leukemia): 61.8 µM
TGI (EKVX NSCLC): > 100 µM
TGI (HCT-15 colon): > 100 µM

[O-][n+]1onc(-c2ccccc2)c1CN1CCOCC1
TGI (ACHN renal): > 100 µM
TGI (SF-268 CNS): > 100 µM
TGI (U251 CNS): > 100 µM
TGI (NCI-H522 lung): > 100 µM
TGI (RXF 393 renal): > 100 µM
TGI (A498 renal): > 100 µM
TGI (MOLT-4 leukemia): 94.1 µM
TGI (UACC-257 melanoma): > 100 µM
TGI (SK-MEL-2 melanoma): > 100 µM
TGI (KM12 colon): > 100 µM
TGI (NCI-H460 lung): > 100 µM
TGI (HL-60(TB) leukemia): > 100 µM
TGI (EKVX NSCLC): > 100 µM
TGI (HCT-15 colon): > 100 µM

COc1ccc(C(c2c[nH]c3ccc(Br)cc23)c2c[nH]c3ccc(Br)cc23)cc1
TGI (ACHN renal): 0.845 µM
TGI (SF-268 CNS): 0.631 µM
TGI (U251 CNS): 0.557 µM
TGI (NCI-H522 lung): 0.397 µM
TGI (RXF 393 renal): 0.578 µM
TGI (A498 renal): 2.29 µM
TGI (MOLT-4 leukemia): 0.478 µM
TGI (UACC-257 melanoma): 0.947 µM
TGI (SK-MEL-2 melanoma): 1.22 µM
TGI (KM12 colon): 0.468 µM
TGI (NCI-H460 lung): 0.361 µM
TGI (HL-60(TB) leukemia): 0.346 µM
TGI (EKVX NSCLC): 1.49 µM
TGI (HCT-15 colon): 0.624 µM

COC1CC(OC2CCC3(C)C(CCC45CCC(C6=CC(=O)OC6)C(C)(CCC43)C5=O)C2)OC(C)C1O (stereo unspecified)
TGI (ACHN renal): 41.1 µM
TGI (SF-268 CNS): 44 µM
TGI (U251 CNS): > 100 µM
TGI (NCI-H522 lung): 82.1 µM
TGI (RXF 393 renal): 89.4 µM
TGI (A498 renal): > 100 µM
TGI (MOLT-4 leukemia): 65.7 µM
TGI (UACC-257 melanoma): > 100 µM
TGI (SK-MEL-2 melanoma): > 100 µM
TGI (KM12 colon): > 100 µM
TGI (NCI-H460 lung): 32.4 µM
TGI (HL-60(TB) leukemia): 43.7 µM
TGI (EKVX NSCLC): > 100 µM
TGI (HCT-15 colon): 52.2 µM

O=c1c2cccnc2cc(-c2ccccc2)n1CCO
TGI (ACHN renal): > 100 µM
TGI (SF-268 CNS): > 100 µM
TGI (U251 CNS): > 100 µM
TGI (NCI-H522 lung): > 100 µM
TGI (RXF 393 renal): > 100 µM
TGI (A498 renal): > 100 µM
TGI (MOLT-4 leukemia): > 100 µM
TGI (UACC-257 melanoma): > 100 µM
TGI (SK-MEL-2 melanoma): > 100 µM
TGI (KM12 colon): > 100 µM
TGI (NCI-H460 lung): > 100 µM
TGI (HL-60(TB) leukemia): > 100 µM
TGI (EKVX NSCLC): > 100 µM
TGI (HCT-15 colon): > 100 µM

Nc1cn(Cc2ccccc2)c2nc(/C=C3/C=CC=CC3=O)c(O)n12
TGI (ACHN renal): > 100 µM
TGI (SF-268 CNS): > 100 µM
TGI (U251 CNS): > 100 µM
TGI (NCI-H522 lung): > 100 µM
TGI (RXF 393 renal): > 100 µM
TGI (A498 renal): > 100 µM
TGI (MOLT-4 leukemia): > 100 µM
TGI (UACC-257 melanoma): > 100 µM
TGI (SK-MEL-2 melanoma): > 100 µM
TGI (KM12 colon): > 100 µM
TGI (NCI-H460 lung): > 100 µM
TGI (HL-60(TB) leukemia): > 100 µM
TGI (EKVX NSCLC): > 100 µM
TGI (HCT-15 colon): > 100 µM

NNc1nc2ccccc2s1
TGI (ACHN renal): > 100 µM
TGI (SF-268 CNS): > 100 µM
TGI (U251 CNS): > 100 µM
TGI (NCI-H522 lung): > 100 µM
TGI (RXF 393 renal): > 100 µM
TGI (A498 renal): > 100 µM
TGI (MOLT-4 leukemia): > 100 µM
TGI (UACC-257 melanoma): > 100 µM
TGI (SK-MEL-2 melanoma): > 100 µM
TGI (KM12 colon): > 100 µM
TGI (NCI-H460 lung): > 100 µM
TGI (HL-60(TB) leukemia): > 100 µM
TGI (EKVX NSCLC): > 100 µM
TGI (HCT-15 colon): > 100 µM

CCOC(=O)C(NC(=O)CC(C)C)(Nc1ccc(S(=O)(=O)Nc2nc(C)cc(C)n2)cc1)C(F)(F)F (stereo unspecified)
TGI (ACHN renal): > 100 µM
TGI (SF-268 CNS): > 100 µM
TGI (U251 CNS): > 100 µM
TGI (NCI-H522 lung): > 100 µM
TGI (RXF 393 renal): > 100 µM
TGI (A498 renal): > 100 µM
TGI (MOLT-4 leukemia): > 100 µM
TGI (UACC-257 melanoma): > 100 µM
TGI (SK-MEL-2 melanoma): > 100 µM
TGI (KM12 colon): > 100 µM
TGI (NCI-H460 lung): > 100 µM
TGI (HL-60(TB) leukemia): > 100 µM
TGI (EKVX NSCLC): > 100 µM
TGI (HCT-15 colon): > 100 µM

COC(=O)C1[C@@H](C(=O)OC)C12C=Cc1ccccc1C=C2 (stereo partly specified)
TGI (ACHN renal): > 100 µM
TGI (SF-268 CNS): > 100 µM
TGI (U251 CNS): > 100 µM
TGI (NCI-H522 lung): > 100 µM
TGI (RXF 393 renal): > 100 µM
TGI (A498 renal): > 100 µM
TGI (MOLT-4 leukemia): > 100 µM
TGI (UACC-257 melanoma): > 100 µM
TGI (SK-MEL-2 melanoma): > 100 µM
TGI (KM12 colon): > 100 µM
TGI (NCI-H460 lung): > 100 µM
TGI (HL-60(TB) leukemia): > 100 µM
TGI (EKVX NSCLC): > 100 µM
TGI (HCT-15 colon): > 100 µM
